Test results reported in patent publication US20110105436A1, “HETEROARYL COMPOUNDS, COMPOSITIONS, AND METHODS OF USE IN CANCER TREATMENT” (AUCKLAND UNISERVICES LIMITED, priority 2008, published 2011).

What was measured:
[1] = system: RCC4/VHL cells; assay: XTT assay, RCC4/VHL versus RCC4 cells (selectivity ratio); format: cell-based
In short: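 RCC4 cells with or without VHL (5000/well) exposed to serially diluted compounds for four days. Viability read as XTT metabolism (0.3 mg/ml XTT plus PMS, 1-2 h, 37 °C) at 450 nm. Ratio is IC50 in RCC4/VHL over IC50 in RCC4.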

[2] = system: SN12C-VHL shRNA tumors; assay: Tumor growth of SN12C-VHL shRNA cells in scid mice; format: in vivo; conditions: VHL-deficient tumors, daily intraperitoneal treatment, FIG. 1E
Description: (§1) In vivo studies. 2−3×10^6 SN12C and SN12C-VHL shRNA cells were injected in male scid mice 4-6 weeks old. When tumor volume reached 150 mm^3, mice were randomized into vehicle control group or STF-62247 treatment group. Mice were treated every day with […] of STF-62247 intraperitoneally. Tumor growth was measured every 2-3 days after the drug treatment was started.
(§2) A. RCC4 and RCC4/VHL cells were labeled with EYFP and the effect of STF-62247 was monitored by fluorescence in each cell type separately. Cells are pseudocolored. B. Clonogenic assay in RCC4, RCC4/VHL, SN12C, SN12C-VHL shRNA cells in the presence of STF-62247 (0-30 μM). Each point of the cell survival is calculated by the average of three different experiments in triplicate as the percent of treated on untreated plate. The error bars represented the standard error of the mean (SEM). C. Upper Panel, clonogenic assay in RCC4 infected with HIF-1α or HIF-2α shRNA by retroviral infection in presence of drug in same conditions described above. Bottom panel, HIF-1α or HIF-2α protein expression evaluated by western blot in RCC4 cells with HIF-1α or HIF-2α shRNA. Tubulin is used as loading control. […] Tumor volume was measured every 2-3 days and data are represented in fold. Five tumors in each condition were analyzed where * p<0.05, **p<0.01 and ***p<0.005.

[3] = system: SN12C tumors; assay: Tumor growth of SN12C cells (wild-type VHL) in scid mice; format: in vivo; conditions: daily intraperitoneal treatment, FIG. 1E
Description: as §1, §2

[4] = system: RCC4 and RCC4/VHL cells; assay: Apoptosis by Hoechst, Annexin V staining and caspase-3; format: cell-based; conditions: in vitro, VHL-deficient cells, 1.25 μM; confirmed by caspase-3 in tumor sections
Description: B. XTT assay in RCC4 and RCC4/VHL in presence of STF-62247 (0-40 μM). Each point of the cell survival is calculated by the average of three different experiments in duplicate as the percent of treated on untreated plate. The error bars are represented as the standard error of the mean (SEM) C. qRT-PCR for Glutl, VEGF, PDF and PGK in RCC4 cells with or without HIF-1a, HIF-2a shRNA and in RCC4/VHL. D. Hoescht staining in RCC4 and RCC4/VHL cells with 1.25 μM of STF-62247 for 2 days. Camptothecin was used as positive control E. FACS analysis for apoptosis after an annexin V-FITC staining in presence or absence of propidium iodine (PI) in cells after a treatment in same conditions than in C. F. Immunoblot for active caspase-3 in RCC4 and RCC4/VHL following treatment with 1.25 μM of STF-62247 for 24 hours. Staurosporine was used as positive control (0.2 μM for 24 hours). G,H. Immunostaining of caspase-3 and Ki67 respectively in SN12C and SN12C+shVHL tumor samples untreated or treated with 30 μM of STF-62247.1. Immunoblot for p53 and SerlS phospho-p53 in RCC4 and RCC4/VHL cells after a treatment with 1.25 μM of STF-62247 or doxorubicin for 24 hours.

[5] = system: RCC4, RCC4/VHL, SN12C and SN12C-VHL shRNA cells; assay: Acidic vesicle organelles with acridine orange (FACS); format: cell-based; conditions: 1.25 μM, VHL-deficient versus wild-type VHL cells
Description: Quantification of Acidic Vesicle Organelles with Acridine Orange. In acridine orange-stained cells, the cytoplasm and nucleus are bright green and dim red, whereas acidic compartments are bright red. The intensity of the red fluorescence is proportional to the degree of acidity. Following 20 hours of treatment with STF-62247 or analogs, cells were stained with 1 μg/ml of acridine orange for 15 min. Cells were trypsinized and then analyzed by flow cytometry using FACScan cytometer and CellQuest software.
A. VHL-deficient RCC4 and wild-type VHL were incubated in presence of 10 μM LY294002, or 1 μg/mlBrefeldin A with 1.25 μM of STF-62247 for 20 hrs and the presence of vacuoles was examined under light microscopy. B,C. LC3 processing was evaluated by Western blot after the treatment with Brefeldin A or LY294002 in presence or absence of STF-62247 as described above. Tubulin was used as loading control. D. Cells were treated with 1.25 μM of STF-62247 with or without 2 mM of 3-MA, 1 μg/ml of Brefeldin A for 20 hrs. For the last 15 min, acidic components were stained with 1 μg/ml of acridine orange and visualized under fluorescence microscope. […] F. Quantification of the FACS analysis. The data are calculated as the average of three different experiments as relative units of treated over untreated cells. The error bars are represented as the standard error of the mean (SEM).
A. RCC4 and RCC4/VHL were treated with 1.25 μM of each 19 analogs for 20 hours and the presence of vacuoles was examined under light microscopy. B. Western blot for LC3 after treatment with each compound. Tubulin was used as loading control. Ratio is the relative from the IC50 in RCC4/VHL cells/IC50 in RCC4 cells. C. Acidic vesicle organelles (AVO) measured by FACS analysis in cells treated with 1.25 μM of STF-62247 or with compounds 21, 15, 25, 47, and 53 and stained with acridine orange.

## Cc1cccc(Nc2nc(-c3ccncc3)cs2)c1 [Compound 5, N-(3-Methylphenyl)-4-(4-pyridinyl)-1,3-thiazol-2-amine]
[1]; Table 1, selectivity ratio, IC50 in RCC4/VHL cells/IC50 in RCC4 cells
  Ratio: 19
[1]; structure-activity text on Tables 1 and 2
  IC50 ratio (wild-type VHL/VHL-deficient cells): high IC50 ratio
[2]
  tumor growth: significantly reduced tumor growth in VHL-deficient cells
[3]
  tumor growth: did not have any effect on the growth of SN12C tumor cells that have wild-type VHL
[4]
  induction of apoptosis: did not induce apoptosis
[5]
  acridine orange staining / amount of AVOs: significantly increased in VHL-deficient RCC4 cells compared to their wild-type VHL counterparts
